Experimental data as given in US20050118678A1, “Modified polypeptides with therapeutic activity and methods of use” (priority 2003, published 2005).
Residues, ends and D or L forms follow the SMILES beside them. No end group written: not given here. *: point of attachment. Stearoyl = CCCCCCCCCCCCCCCCCC(=O)*; Lauroyl = CCCCCCCCCCCC(=O)*

Legend:
P. aeruginosa Type I = conditions: pH 7
B. anthracis = conditions: cell survival by optical density at 650 nm
E. coli 055:B5 LPS = assay: Limulus amoebocyte lysate assay for LPS neutralization; assay type: biochemical; conditions: for IC50: 0.04 unit E. coli 055:B5 LPS, chromogenic QCL-1000 kit, read-out: LPS Binding (IC50); for LPS binding activity, fold higher than the SC4 peptide: relative to SC4
Description: Limulus amoebocyte lysate assay for lipopolysaccharide (LPS) neutralization. The ability of SC4 peptide and amphiphiles to neutralize endotoxin was measured using the chromogenic QCL-1000 kit from BioWhittaker, Inc. (Walkersville, Md). This method is quantitative for Gram-negative bacterial endotoxin (LPS) and uses peptide inhibition of LPS-mediated activation of a proenzyme as a measure of activity (Young et al., J. Clin. Invest. 51, 1790-1797 (1972)). Peptides of the appropriate concentration were mixed with Limulus amoebocyte lysate, 0.04 unit (0.01 nanogram (ng)) of E. coli 055:B5 LPS (SIGMA), and a colorless synthetic substrate (Ac-Ile-Glu-Ala-Arg-pNA) (SEQ ID NO: 18). Peptide binding to LPS was determined by monitoring enzymatic conversion of the substrate to yellow p-nitroaniline (pNA) via absorption at 410 nm. Endotoxin concentration was determined from the initial rate of enzyme activation. IC50 (concentration displaying 50% inhibition) values for LPS binding were determined by fitting to a dose-response curve.

[1] = system: drug-resistant strains of S. aureus (W73134 and M49780); assay: Example 2 antibacterial effect on drug-resistant strains; assay type: cell-based; conditions: W73134 and M49780, FIG. 15 and 16
bacteria = assay: Example 3 antibacterial activity of lauric acid conjugates; assay type: cell-based; conditions: lauric acid conjugate vs unconjugated peptide
From the text: The hemolytic activity of the KAK and AKK peptides and conjugates was low. […] Fatty acid conjugation will improve the usefulness of peptides as antimicrobial agents by enhancing their ability to form secondary structures upon interacting with the bacterial membranes.

S. pyogenes Eaton = conditions: pH 7
S. aureus MN8 = conditions: MN8, pH 7
E. coli J96 = conditions: J96, pH 7
S. aureus MNHO = conditions: pH 7
S. pyogenes Wilson = conditions: pH 7
human red blood cells = conditions: for Hemolysis (LD50): red cells of human, 1 h
E. coli IA2 = conditions: IA2, pH 7
[2] = system: erythrocytes (hemolytic activity); conditions: cited from earlier work
[3] = system: MN8, Hoch, Knutson, FR1722, and RN6390; assay: Example 2 antibacterial effect on five Gram-positive strains; assay type: cell-based; conditions: FIG. 10-14

## CCCCCCCCCCCC(=O)N[C@@H](CCCCN)C(=O)N[C@@H](CC(C)C)C(=O)N[C@@H](Cc1ccccc1)C(=O)N[C@@H](CCCCN)C(=O)N[C@@H](CCCNC(=N)N)C(=O)N[C@@H](Cc1c[nH]cn1)C(=O)N[C@@H](CC(C)C)C(=O)N[C@@H](CCCCN)C(=O)N[C@@H](Cc1c[nH]c2ccccc12)C(=O)N[C@@H](CCCCN)C(=O)N[C@H](C(=O)N[C@H](C(N)=O)[C@@H](C)CC)[C@@H](C)CC [C12-SC4] (Lauroyl-KLFKRHLKWKII-NH2)
S. aureus W73134
  Bactericidal Activity (LD50) S. aureus W73134: 0.62 µM
P. aeruginosa Type I
  Bactericidal Activity (LD50) P. aeruginosa Type I: 0.035 µM
Eukaryotic cell
  Change in hemolytic activity on fatty acid conjugation: large increase in hemolytic activity
B. anthracis
  Bactericidal Activity (LD50) B. anthracis: 3.25 µM
E. coli 055:B5 LPS
  IC50: 230 nM
  LPS binding activity, fold higher than the SC4 peptide: approximately 3 fold
[1]
  Killing of drug-resistant S. aureus strains: killed both drug-resistant strains
bacteria
  Antimicrobial activity relative to unconjugated peptide: increased antimicrobial activity
S. pyogenes Eaton
  Bactericidal Activity (LD50) S. pyogenes Eaton: 0.066 µM
S. aureus MN8
  Bactericidal Activity (LD50) S. aureus MN8: 0.68 µM
E. coli J96
  Bactericidal Activity (LD50) E. coli J96: 0.077 µM
S. aureus MNHO
  Bactericidal Activity (LD50) S. aureus MNHO: 0.34 µM
S. pyogenes Wilson
  Bactericidal Activity (LD50) S. pyogenes Wilson: 0.16 µM
S. aureus M49780
  Bactericidal Activity (LD50) S. aureus M49780: 0.66 µM
Human red blood cells
  Hemolysis (LD50): 6.2 µM
E. coli IA2
  Bactericidal Activity (LD50) E. coli IA2: 0.079 µM

## CC[C@H](C)[C@H](NC(=O)[C@@H](NC(=O)[C@H](CCCCN)NC(=O)[C@H](Cc1c[nH]c2ccccc12)NC(=O)[C@H](CCCCN)NC(=O)[C@H](CC(C)C)NC(=O)[C@H](Cc1c[nH]cn1)NC(=O)[C@H](CCCNC(=N)N)NC(=O)[C@H](CCCCN)NC(=O)[C@H](Cc1ccccc1)NC(=O)[C@H](CC(C)C)NC(=O)[C@@H](N)CCCCN)[C@@H](C)CC)C(N)=O [SC4, KLFKRHLKWKII, reference compound] (H-KLFKRHLKWKII-NH2)
[2]
  Concentration below which no hemolytic activity is shown: ≥ 100 µM
S. aureus W73134
  Bactericidal Activity (LD50) S. aureus W73134: 2.3 µM
P. aeruginosa Type I
  Bactericidal Activity (LD50) P. aeruginosa Type I: 0.028 µM
B. anthracis
  Bactericidal Activity (LD50) B. anthracis: >15 µM
S. pyogenes Eaton
  Bactericidal Activity (LD50) S. pyogenes Eaton: >2.0 µM
S. aureus MN8
  Bactericidal Activity (LD50) S. aureus MN8: 1.3 µM
E. coli J96
  Bactericidal Activity (LD50) E. coli J96: 0.12 µM
S. aureus MNHO
  Bactericidal Activity (LD50) S. aureus MNHO: 2.3 µM
S. pyogenes Wilson
  Bactericidal Activity (LD50) S. pyogenes Wilson: >1.0 µM
S. aureus M49780
  Bactericidal Activity (LD50) S. aureus M49780: 2.0 µM
Human red blood cells
  Concentration up to which little hemolytic activity was demonstrated: > 400 µM
  Hemolysis (LD50): >375 µM
E. coli IA2
  Bactericidal Activity (LD50) E. coli IA2: 0.21 µM

## CCCCCCCCCCCCCCCCCC(=O)N[C@@H](CCCCN)C(=O)N[C@@H](CC(C)C)C(=O)N[C@@H](Cc1ccccc1)C(=O)N[C@@H](CCCCN)C(=O)N[C@@H](CCCNC(=N)N)C(=O)N[C@@H](Cc1c[nH]cn1)C(=O)N[C@@H](CC(C)C)C(=O)N[C@@H](CCCCN)C(=O)N[C@@H](Cc1c[nH]c2ccccc12)C(=O)N[C@@H](CCCCN)C(=O)N[C@H](C(=O)N[C@H](C(N)=O)[C@@H](C)CC)[C@@H](C)CC [C18-SC4] (Stearoyl-KLFKRHLKWKII-NH2)
S. aureus W73134
  Bactericidal Activity (LD50) S. aureus W73134: 0.10 µM
P. aeruginosa Type I
  Bactericidal Activity (LD50) P. aeruginosa Type I: 0.042 µM
B. anthracis
  Bactericidal Activity (LD50) B. anthracis: 2.23 µM
E. coli 055:B5 LPS
  IC50: 82 nM
  LPS binding activity, fold higher than the SC4 peptide: ~6 fold
[1]
  Killing of drug-resistant S. aureus strains: killed both drug-resistant strains
S. pyogenes Eaton
  Bactericidal Activity (LD50) S. pyogenes Eaton: 0.11 µM
[3]
  Increase in antibacterial effect relative to SC-4: ten to twenty fold increases
S. aureus MN8
  Bactericidal Activity (LD50) S. aureus MN8: 0.11 µM
E. coli J96
  Bactericidal Activity (LD50) E. coli J96: 0.23 µM
S. aureus MNHO
  Bactericidal Activity (LD50) S. aureus MNHO: 0.068 µM
S. pyogenes Wilson
  Bactericidal Activity (LD50) S. pyogenes Wilson: 0.13 µM
S. aureus M49780
  Bactericidal Activity (LD50) S. aureus M49780: 0.24 µM
Human red blood cells
  Hemolytic activity, fold more hemolytic than C12-SC4: roughly 3 fold
  Hemolysis (LD50): 1.9 µM
E. coli IA2
  Bactericidal Activity (LD50) E. coli IA2: 0.19 µM

## conjugated AKK: AKK peptide YGAA[KKAAKAA](2) conjugated with lauric acid (YGAAKKAAKAA; numbers in words are those of the source; also: dimer [KKAAKAA](2), lauric acid conjugate, place not given here)
Eukaryotic cell
  Hemolytic activity: low
bacteria
  Antimicrobial activity relative to unconjugated peptide: increased antimicrobial activity

## C[C@H](NC(=O)[C@H](C)NC(=O)[C@H](CCCCN)NC(=O)[C@H](C)NC(=O)[C@H](C)NC(=O)[C@H](CCCCN)NC(=O)[C@H](CCCCN)NC(=O)[C@H](C)NC(=O)[C@H](C)NC(=O)[C@H](CCCCN)NC(=O)[C@H](C)NC(=O)[C@H](C)NC(=O)[C@H](CCCCN)NC(=O)[C@H](CCCCN)NC(=O)[C@H](C)NC(=O)[C@H](C)NC(=O)CNC(=O)[C@@H](N)Cc1ccc(O)cc1)C(=O)O [AKK, YGAA[KKAAKAA](2), reference compound] (H-YGAAKKAAKAAKKAAKAA-OH)
Eukaryotic cell
  Hemolytic activity: low

## C[C@H](NC(=O)[C@H](CCCCN)NC(=O)[C@H](C)NC(=O)[C@H](C)NC(=O)[C@H](CCCCN)NC(=O)[C@H](C)NC(=O)[C@H](CCCCN)NC(=O)[C@H](C)NC(=O)[C@H](C)NC(=O)[C@H](CCCCN)NC(=O)[C@H](C)NC(=O)[C@H](C)NC(=O)[C@H](CCCCN)NC(=O)[C@H](C)NC(=O)[C@H](CCCCN)NC(=O)[C@H](C)NC(=O)CNC(=O)[C@@H](N)Cc1ccc(O)cc1)C(=O)O [KAK, YG[AKAKAAKA](2), reference compound] (H-YGAKAKAAKAAKAKAAKA-OH)
Eukaryotic cell
  Hemolytic activity: low

## conjugated KAK: KAK peptide YG[AKAKAAKA](2) conjugated with lauric acid (YGAKAKAAKA; numbers in words are those of the source; also: dimer [AKAKAAKA](2), lauric acid conjugate, place not given here)
Eukaryotic cell
  Hemolytic activity: low
